From article PMC7589200, “Identification of Putative Non-Substrate-Based XT-I Inhibitors by Natural Product Library Screening” (Biomolecules, 2020)

Key:
Assay type in all cases: cell-based, human
miRNA-21 = miRNA-21 expression in NHDFs, TaqMan advanced miRNA assay; details: TGF-β1 5 µg/L, 48 h, serum-starved NHDFs
Protocol: (§1) The RNA extraction from cell lysates and cDNA synthesis for mRNA and miRNA expression analysis were performed as described previously.
The TaqMan advanced miRNA Assay (Thermo Fisher Scientific; Waltham, Massachusetts, United States) was performed, according to the manufacturer’s instructions, for the miRNA expression analyses. The primer assays miRNA-21 (477975_mir) and miRNA-191 (477952_mir) were used. The expression level of miRNA-21 determined was normalized to internal housekeeping gene expression of miRNA-191 via the ΔΔCT method.

XYLT1 mRNA expression = XYLT1 mRNA expression in NHDFs by qRT-PCR; details: TGF-β1 5 μg/L, 48 h
Protocol: (§2) A former established cell culture model was utilized to investigate the effect of putative XT-I inhibitors on NHDFs. The inhibition studies were carried out with final inhibitor concentrations of 0.5, 1.0, 2.0 or 4.0 μM diluted in fully supplemented DMEM. In brief, unless otherwise stated, NHDFs were cultivated with a low density of 50 cells per mm^2 on a hard tissue culture substrate (100 × 20 mm dish) in fully supplemented DMEM with or without additional TGF-β1 (5 μg/L) for 24 h, promoting their transdifferentiation into proto-myofibroblasts. Thereafter, cells were treated with celastrol or amphotericin B in the presence or absence of TGF-β1 (5 μg/L) for an additional 48 h. Negative controls treated with solvent only were included for every sampling time. The final DMSO content of 0.04% (v/v) was kept constant in all inhibition experiments. […]
as §1
(§3) Quantitative real-time polymerase chain reaction (qRT-PCR) analysis using a LightCycler 480 Instrument II system (Roche, Basel, Swiss) was performed as previously described. The qRT-PCR experiments were conducted with three biological and three technical replicates per donor-derived primary cell culture, unless otherwise stated. The intron-spanning primer sequences used are listed in [7] and Table 1. The geometric mean of the expression levels of the housekeeping genes SDHA, RPL13A and B2M were calculated for expression normalization. The relative target gene mRNA expressions were determined by the ΔΔCT method considering the PCR efficiency. All normalized gene expression levels shown were referred to the respective target gene expression of one primary cell culture sample for the relative comparison of multiple biological samples per experiment and figures.

XYLT2 mRNA expression = XYLT2 mRNA expression in NHDFs by qRT-PCR; details: TGF-β1 (5 μg/L) supplementation, 48 h
Protocol: (§4) A former established cell culture model was utilized to investigate the effect of putative XT-I inhibitors on NHDFs. The inhibition studies were carried out with final inhibitor concentrations of 0.5, 1.0, 2.0 or 4.0 μM diluted in fully supplemented DMEM. In brief, unless otherwise stated, NHDFs were cultivated with a low density of 50 cells per mm^2 on a hard tissue culture substrate (100 × 20 mm dish) in fully supplemented DMEM with or without additional TGF-β1 (5 μg/L) for 24 h, promoting their transdifferentiation into proto-myofibroblasts. Thereafter, cells were treated with celastrol or amphotericin B in the presence or absence of TGF-β1 (5 μg/L) for an additional 48 h. Negative controls treated with solvent only were included for every sampling time. The final DMSO content of 0.04% (v/v) was kept constant in all inhibition experiments.
as §1, §3

SMAD7 mRNA expression = SMAD7 mRNA expression in NHDFs by qRT-PCR; details: TGF-β1 5 μg/L, 48 h
Protocol: as §2
(§5) Quantitative real-time polymerase chain reaction (qRT-PCR) analysis using a LightCycler 480 Instrument II system (Roche, Basel, Swiss) was performed as previously described. […] The geometric mean of the expression levels of the housekeeping genes SDHA, RPL13A and B2M were calculated for expression normalization. The relative target gene mRNA expressions were determined by the ΔΔCT method considering the PCR efficiency. […]

TGFB1 mRNA expression = TGFB1 mRNA expression in NHDFs by qRT-PCR; details: TGF-β1 5 μg/L, 48 h
Protocol: as §4, §1, §5

TGF-β1: Recombinant human TGF-β1, pro-fibrotic mediator used to stimulate fibroblasts
miRNA-21 expression relative to untreated (miRNA-21): 2.5 ± 0.2 fold
increase in XYLT1 mRNA expression relative to untreated control (XYLT1 mRNA expression; Figure 5A–D): 3.7 ± 0.3 fold
increase in XYLT1 mRNA expression relative to untreated control (XYLT1 mRNA expression; Figure 5E): 4.6 ± 0.2 fold
XYLT2 mRNA expression level (XYLT2 mRNA expression): unaffected
SMAD7 mRNA expression relative to control (SMAD7 mRNA expression): 1.8 ± 0.2 fold
TGFB1 mRNA expression (autoinduction) relative to control (TGFB1 mRNA expression): 1.1 ± 0.08 fold
